8 molecules from US20050267092A1, “Novel cephalosporin compounds and process for preparing the same” (priority 2002, published 2005) can be followed below.

Common to all, as to test: Minimum Inhibitory Concentration (MIC), agar dilution, standard strains
Holding throughout (assay type): cell-based
On the technique in general: In agar dilution, organisms are placed on agar that contains the substance at set levels.

One test has as its system S. epidermidis Q033. Conditions: for MIC: Staphylococcus epidermidis, read-out: Minimum Inhibitory Concentration (MIC), S. epidermidis Q033. Here is the method: (§1) Minimum Inhibitory Concentration (MIC)
(§2) The effectiveness of the compound according to the present invention was determined by obtaining Minumum Inhibitory Concentration (MIC) of the compounds prepared by the above examples (Compounds I-1˜I-6, I-10) and Vancomycin, which is the known compound having a potent activity against gram-positive strains, as the control drug against the standard strains. Specifically, Minimum Inhibitory Concentration was obtained by diluting the test compounds according to a double dilution method, dispersing them in Mueller-Hinton agar medium, inoculating each of the test strains having 10^7 cfu (colony forming unit) per ml in an amount of 2 μl to the medium and then incubating them at 37° C. for 20 hours. From the results of Minimum Inhibitory Concentration test, it can be seen that the compound according to the present invention has a good activity against major pathogenic microorganisms, which cause hospital infection, including MRSA strains.

The test system of the next test is S. aureus 77. The note with it: for MIC: read-out: Minimum Inhibitory Concentration (MIC), S. aureus 77. The procedure:
as §1, §2

The test system of a further test is S. aureus K311. The note with it: for MIC: Staphylococcus aureus, read-out: Minimum Inhibitory Concentration (MIC), S. aureus K311. Here is the method:
as §1, §2

Another test relates to E. faecalis 2168. Conditions: for MIC: read-out: Minimum Inhibitory Concentration (MIC), E. faecalis 2168. Here is the method:
as §1, §2

The next test deals with S. aureus giorgio. The note with it: for MIC: Staphylococcus aureus, read-out: Minimum Inhibitory Concentration (MIC), S. aureus giorgio. Here is the method:
as §1, §2

Where [1] appears, read: Mueller-Hinton agar, double dilution, 37° C. for 20 hours.
[2] abbreviates: Q033, Mueller-Hinton agar, double dilution, 37° C. for 20 hours.
The mark [3] stands for this setting: Staphylococcus aureus, 77, Mueller-Hinton agar, double dilution, 37° C. for 20 hours.
[4] abbreviates: K311, Mueller-Hinton agar, double dilution, 37° C. for 20 hours.
The mark [5] stands for this setting: Enterococcus faecalis, 2168, Mueller-Hinton agar, double dilution, 37° C. for 20 hours.

Each structure is given as a SMILES string. In brackets after ≈: the same amount, converted by molar mass. Read-outs that look alike come from different tables or passages of the source. A value given as a limit tells only on which side of the number the result lay.

Regarding `CN[C@H](CC(C)C)C(=O)N[C@H]1C(=O)N[C@@H](CC(N)=O)C(=O)N[C@H]2C(=O)N[C@H]3C(=O)N[C@H](C(=O)N[C@H](C(=O)O)c4cc(O)cc(O)c4-c4cc3ccc4O)[C@H](O)c3ccc(c(Cl)c3)Oc3cc2cc(c3O[C@@H]2O[C@H](CO)[C@@H](O)[C@H](O)[C@H]2O[C@H]2C[C@](C)(N)[C@H](O)[C@H](C)O2)Oc2ccc(cc2Cl)[C@H]1O` [Vancomycin, reference compound], the MIC in the test on S. epidermidis Q033 (Q033, 20 h) is 1 µg/mL (≈ 0.69 µM); in the test on S. aureus 77 (Staphylococcus aureus, 77, 20 h) it was 1 µg/mL (≈ 0.69 µM); with S. aureus K311 (K311, 20 h), 2 µg/mL (≈ 1.38 µM); in the test with E. faecalis 2168 (Enterococcus faecalis, 2168, 20 h), over 64 µg/mL; in the test on S. aureus giorgio (20 h) it was 1 µg/mL (≈ 0.69 µM).

For `Cc1cc(S/C=C/C2=C(C(=O)O)N3C(=O)[C@@H](NC(=O)C(=NO)c4nc(N)sc4Cl)[C@H]3SC2)nc(SCCN)n1` [Compound I-5], the “Minimum Inhibitory Concentration (MIC), S. epidermidis Q033” value with S. epidermidis Q033 (setting [1]) is 0.13 µg/mL. In addition, in the test with S. aureus 77 (setting [1]), the “Minimum Inhibitory Concentration (MIC), S. aureus 77” value was found to be 1 µg/mL. For the same molecule, the “Minimum Inhibitory Concentration (MIC), S. aureus K311” value with S. aureus K311 (setting [1]) stood at 2 µg/mL. The “Minimum Inhibitory Concentration (MIC), E. faecalis 2168” value in the test with E. faecalis 2168 (setting [1]) stood at 0.25 µg/mL. The “Minimum Inhibitory Concentration (MIC), S. aureus giorgio” value in the test with S. aureus giorgio (setting [1]) came to 0.25 µg/mL.

On to `Nc1nc(C(=NO)C(=O)N[C@@H]2C(=O)N3C(C(=O)O)=C(/C=C/Sc4nc(N)c5cn[nH]c5n4)CS[C@H]23)c(Cl)s1` [Compound I-6, (6R,7R)-7-{[2-(2-amino-5-chloro-1,3-thiazol-4-yl)-2-(hydroxyimino)acetyl]amino}-3-{(E)-2-[(4-amino-1H-pyrazolo[3,4-d]pyrimidin-6-yl)sulfanyl]ethenyl}-8-oxo-5-thia-1-azabicyclo[4.2.0]oct-2-ene-2-carboxylic acid], for which the MIC in the test with S. epidermidis Q033 (setting [2]) is 0.031 µg/mL (≈ 0.0521 µM); in the test on S. aureus 77 (setting [3]) it was 0.5 µg/mL (≈ 0.84 µM); in the test on S. aureus K311 (setting [4]), 0.5 µg/mL (≈ 0.84 µM); in the test on E. faecalis 2168 (setting [5]), 0.5 µg/mL (≈ 0.84 µM); in the test with S. aureus giorgio (setting [1]), 0.13 µg/mL (≈ 0.218 µM).

In the case of `Nc1cc(S/C=C/C2=C(C(=O)O)N3C(=O)[C@@H](NC(=O)C(=NO)c4nc(N)sc4Cl)[C@H]3SC2)nc(N)n1` [Compound I-2, (6R,7R)-7-{[2-(2-amino-5-chloro-1,3-thiazol-4-yl)-2-(hydroxyimino)acetyl]amino}-3-{(E)-2-[(2,6-diamino-4-pyrimidinyl)sulfanyl]ethenyl}-8-oxo-5-thia-1-azabicyclo[4.2.0]oct-2-ene-2-carboxylic acid], the MIC in the test on S. epidermidis Q033 (setting [2]) amounted to 0.063 µg/mL (≈ 0.111 µM); in the test on S. aureus 77 (setting [3]), 1 µg/mL (≈ 1.75 µM); with S. aureus K311 (setting [4]), 1 µg/mL (≈ 1.75 µM); with E. faecalis 2168 (setting [5]), 1 µg/mL (≈ 1.75 µM); in the test on S. aureus giorgio (setting [1]) it was 0.13 µg/mL (≈ 0.228 µM).

Regarding `Nc1cc(S/C=C/C2=C(C(=O)O)N3C(=O)[C@@H](NC(=O)C(=NOC4CCCC4)c4nc(N)sc4Cl)[C@H]3SC2)nc(N)n1` [Compound I-10, (6R,7R)-7-({2-(2-amino-5-chloro-1,3-thiazol-4-yl)-2-[(cyclopentyloxy)imino]acetyl}amino)-3-{(E)-2-[(2,6-diamino-4-pyrimidinyl)sulfanyl]ethenyl}-8-oxo-5-thia-1-azabicyclo[4.2.0]oct-2-ene-2-carboxylic acid], the MIC with S. epidermidis Q033 (setting [2]) is 0.063 µg/mL (≈ 0.0987 µM); with S. aureus 77 (setting [3]), 2 µg/mL (≈ 3.13 µM); in the test with S. aureus K311 (setting [4]), 2 µg/mL (≈ 3.13 µM); in the test with E. faecalis 2168 (setting [5]), 4 µg/mL (≈ 6.27 µM); in the test with S. aureus giorgio (setting [1]), 0.5 µg/mL (≈ 0.784 µM).

`Nc1nc(O)cc(S/C=C/C2=C(C(=O)O)N3C(=O)[C@@H](NC(=O)C(=NO)c4nc(N)sc4Cl)[C@H]3SC2)n1` [Compound I-3, (6R,7R)-7-{[2-(2-amino-5-chloro-1,3-thiazol-4-yl)-2-(hydroxyimino)acetyl]amino}-3-{(E)-2-[(2-amino-6-hydroxy-4-pyrimidinyl)sulfanyl]ethenyl}-8-oxo-5-thia-1-azabicyclo[4.2.0]oct-2-ene-2-carboxylic acid]: the MIC with S. epidermidis Q033 (setting [2]) was determined as 0.063 µg/mL (≈ 0.11 µM); in the test with S. aureus 77 (setting [3]) it was 0.5 µg/mL (≈ 0.876 µM); in the test with S. aureus K311 (setting [4]) it was 0.5 µg/mL (≈ 0.876 µM); in the test with E. faecalis 2168 (setting [5]) it was 0.5 µg/mL (≈ 0.876 µM); in the test on S. aureus giorgio (setting [1]), 0.13 µg/mL (≈ 0.228 µM).

Regarding `NCCSc1nccc(S/C=C/C2=C(C(=O)O)N3C(=O)[C@@H](NC(=O)C(=NO)c4nc(N)sc4Cl)[C@H]3SC2)n1` [Compound I-4, (6R,7R)-7-{[2-(2-amino-5-chloro-1,3-thiazol-4-yl)-2-(hydroxyimino)acetyl]amino}-3-{(E)-2-({2-[(2-aminoethyl)sulfanyl]-4-pyrimidinyl}sulfanyl)ethenyl}-8-oxo-5-thia-1-azabicyclo[4.2.0]oct-2-ene-2-carboxylic acid], the MIC in the test on S. epidermidis Q033 (setting [2]) came to 0.13 µg/mL (≈ 0.211 µM); in the test on S. aureus 77 (setting [3]), 1 µg/mL (≈ 1.63 µM); in the test on S. aureus K311 (setting [4]), 2 µg/mL (≈ 3.25 µM); in the test with E. faecalis 2168 (setting [5]) it was 1 µg/mL (≈ 1.63 µM); in the test with S. aureus giorgio (setting [1]) it was 0.25 µg/mL (≈ 0.406 µM).

With `Nc1cc(S/C=C/C2=C(C(=O)O)N3C(=O)[C@@H](NC(=O)C(=NO)c4nc(N)sc4Cl)[C@H]3SC2)nc(O)n1` [Compound I-1, (6R,7R)-7-{[2-(2-amino-5-chloro-1,3-thiazol-4-yl)-2-(hydroxyimino)acetyl]amino}-3-{(E)-2-[(6-amino-2-hydroxy-4-pyrimidinyl)sulfanyl]ethenyl}-8-oxo-5-thia-1-azabicyclo[4.2.0]oct-2-ene-2-carboxylic acid], the MIC is 0.063 µg/mL (≈ 0.11 µM) with S. epidermidis Q033 (setting [2]); 0.25 µg/mL (≈ 0.438 µM) in the test on S. aureus 77 (setting [3]); 0.5 µg/mL (≈ 0.876 µM) in the test with S. aureus K311 (setting [4]); 0.5 µg/mL (≈ 0.876 µM) with E. faecalis 2168 (setting [5]); 0.13 µg/mL (≈ 0.228 µM) in the test with S. aureus giorgio (setting [1]).
